Where two headings read alike, the source gives them in different places.
Tests used:
[1] = test system: Spontaneously Hypertensive Rats; assay: Test 1: antihypertensive effects (systolic tail artery blood pressure) and heart rate in spontaneously hypertensive rats, oral; format: in vivo, rat (male, SHR); details: SHR, oral 1 mg/Kg; for change in vivo at 1 mg/kg: Rattus norvegicus; for Change (%) in heart rate: maximum value
Procedure, shortened: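 Male SHRs aged 20 weeks or older (350-430 g), with systolic pressure of 180 mmHg or higher, were used in groups of 3-4. Compounds in 0.5% methylcellulose were given orally, mostly at 1 mg/Kg. Systolic tail-artery blood pressure and heart rate were measured together as percent change.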

[2] = test system: Mouse; assay: Test 2: acute toxicity, mouse, oral; format: in vivo, male ddy-mice; details: fourteenth day
Protocol: The acute toxicity of certain compounds of this invention were studied in the following manner.
Namely, male ddy-mice of 5 weeks of age and male Wister rats of 8 weeks of age were fasted for 18 hours and used in groups each of which was constituted of 4-5 of mice or rats. The compounds were each dissolved or suspended in a 0.5% methylcellulose solution and administered orally (P.O.). On the fourteenth day after the administration, their toxicity were judged.
Each numeral set indicates the number of dead animals/the number of teste
animals. Hyphens (--) indicate that no tests were effected.

[3] = 1 hour, read-out: Antihypertensive effects, change (%) in blood pressure, 1 hour later
[4] = 3 hours, read-out: Antihypertensive effects, change (%) in blood pressure, 3 hours later
[5] = 6 hours, read-out: Antihypertensive effects, change (%) in blood pressure, 6 hours later
[6] = 24 hours, read-out: Antihypertensive effects, change (%) in blood pressure, 24 hours later

SMILES | change in vivo at 1 mg/kg [1, 3] [%] | change in vivo at 1 mg/kg [1, 4] [%] | change in vivo at 1 mg/kg [1, 5] [%] | change in vivo at 1 mg/kg [1, 6] [%] | Change (%) in heart rate [1] | Acute Toxicity, number of dead animals/number of tested animals ([2]; 1 g/Kg P.O.) | Acute Toxicity, number of dead animals/number of tested animals ([2]; 3 g/Kg P.O.)
CCN1CCc2nc(N3CCN(c4nc(N)c5cc(OC)c(OC)cc5n4)CC3)ncc2C1=O [Example 17] | 0 | -20.2 | -27.9 | -12 | +10.8% | 0/5 | –
CCN1CCC(=O)c2cnc(N3CCN(c4nc(N)c5cc(OC)c(OC)cc5n4)CC3)nc21 [Example 21] | -17.2 | -23.2 | -23.6 | -3.4 | +7.4% | 0/4 | –
CCN1Cc2nc(N3CCN(c4nc(N)c5cc(OC)c(OC)cc5n4)CC3)ncc2C1=O [Example 23] | -11.7 | -21.9 | -27 | -2.6 | +23.1% | 0/5 | 0/5
COc1cc2nc(N3CCN(c4ncc5c(n4)CN(C(C)C)C5=O)CC3)nc(N)c2cc1OC [Example 25] | -4.3 | -23.9 | -35.4 | -6.7 | +12.9% | 0/5 | –
CCN1C(=O)Cc2cnc(N3CCN(c4nc(N)c5cc(OC)c(OC)cc5n4)CC3)nc21 [Example 28] | -17.2 | -15.3 | -31.6 | -3.3 | +11.7% | 0/5 | –
COc1cc2nc(N3CCN(c4ncc5c(n4)N(C(C)C)C(=O)C5)CC3)nc(N)c2cc1OC [Example 30] | -7.4 | -24.7 | -32.1 | -8.8 | +11.7% | 0/5 | –
CCN1C(=O)CCCc2nc(N3CCN(c4nc(N)c5cc(OC)c(OC)cc5n4)CC3)ncc21 [Example 32] | -20.2 | -30.5 | -35.2 | -16.4 | +11.0% | 0/5 | –
CCOC(=O)c1cnc(N2CCN(c3nc(N)c4cc(OC)c(OC)cc4n3)CC2)nc1C [Example 39] | -4.4 | -12.7 | -7.3 | 1.5 | +2.2% | 0/5 | –
CCNC(=O)c1cnc(N2CCN(c3nc(N)c4cc(OC)c(OC)cc4n3)CC2)nc1NCC [Example 66] | -18 | -23.7 | -28.9 | -16 | +3.8% | 0/5 | –
COc1cc2nc(N3CCN(c4ncc5ccccc5n4)CC3)nc(N)c2cc1OC [Example 70] | -7.8 | -17.5 | -23.3 | -4.4 | +13.7% | 0/4 | –
CCn1ccc2nc(N3CCN(c4ncc5cc(OC)c(OC)cc5n4)CC3)ncc2c1=O [Example 95, 6,7-Dimethoxy-2-(4-(5,6-dihydro-6-ethyl-5-oxopyrido[4,3-d]pyrimidine-2-yl)piperazino)quinazoline] | 2.5 | -2.9 | -6.4 | -3.9 | +5.8% | – | –
CCn1ccc2nc(N3CCN(c4ncc5ccccc5n4)CC3)ncc2c1=O [Example 96, 2-(4-(5,6-Dihydro-6-ethyl-5-oxopyrido[4,3-d]pyrimidine-2-yl)piperazino)quinazoline] | 3 | -2.5 | -8 | -6.5 | +2.9% | – | –

From patent US4734418A, “Quinazoline compounds and antihypertensives” (priority 1984, dated 1988)
